# Test results taken from US20120028358A1, “METHOD FOR INCREASING RETROVIRAL INFECTIVITY” (priority 2010, published 2012).
# Test system: rat PMVEC
# Test: Gamma-retroviral infection efficiency of PMVEC (percent fluorescent cells by FACS)
# Format: cell-based
# Conditions: 1 μmol/L; MMLV with ecotropic, amphotropic, VSV-G pantropic envelope
# Protocol: Cell cultures: Phoenix Retroviral Expression System ecotropic and amphotropic packaging cells were purchased from Orbigen, Inc. (San Diego, Calif.). […] Rat pulmonary microvascular endothelial cells (PMVEC), were obtained from our cell culture core at the University of South Alabama (King J, et al. Structural and functional characteristics of lung macro and microvascular endothelial phenotypes. Microvascular Res. 2004, March, 67(2). 139-151). Human glioblastoma cells (U87MG), and human mammary carcinoma cells (T47D) were obtained from ATCC. All cells were cultured in DMEM, 10% FBS, 2 mmol L-Glutamine and used for experiments at passages 4-9. All cells were grown in humidified incubators at 37° C. in 5% CO2. Cells were harvested by 0.05% trypsin/0.53 mM EDTA digestion, washed, re-suspended in cultured medium and analyzed directly by FACScan in the University of South Alabama Flow Cytometry Core. For cell cycle analysis cellular DNA was stained with […] of propridium iodide for 20 minutes as described elsewhere (48) and then analyzed by FACScan.
# Vectors and delivery systems: pBMN-GFP (Orbigen, Inc., San Diego, Calif.), a retroviral vector that expresses GFP driven by the MMLV's promoter in Phoenix and other cells was used. […]
structure (smiles),measurement,value
"CC#C[C@]1(O)CC[C@H]2[C@@H]3CCC4=CC(=O)CCC4=C3[C@@H](c3ccc(N(C)C)cc3)C[C@@]21C [mifepristone, 11-beta-(4-dimethylaminophenyl)-17-beta-hydroxy-17-alpha-(1-propynyl)-estra-4,9-dien-3-one]",Percentage of infected cells,doubled
